From PMC6405326 (ACS chemical neuroscience, 2018)

Assays:
mouse MOR [1] = molecular target: T1, mouse MOR (Mus musculus, UniProt P42866); experiment: [35S]-GTPγS functional assay, MOR-CHO membranes; details: for Emax: read-out: MOR [35S]-GTPγS assay % Emax of DAMGO, relative to 3 μM DAMGO; for MOR [35S]-GTPγS assay % Emax of DAMGO: relative to 3 μM DAMGO
mouse KOR = mouse KOR (Mus musculus, UniProt P33534); experiment: Competitive radioligand binding assay, KOR
mouse DOR = mouse DOR (Mus musculus, UniProt P32300); experiment: Competitive radioligand binding assay, DOR
mouse MOR [2] = molecular target: T1, mouse MOR; experiment: Competitive radioligand binding assay, MOR
male Swiss Webster mice [3] = experiment: Warm-water tail immersion assay, antinociceptive effect; details: 10 mg/kg s.c., tested 20 min after injection, 56 °C water
male Swiss Webster mice [4] = experiment: Warm-water tail immersion assay, antagonism of morphine's antinociceptive effect; details: dose-response study, s.c.
[5] = cited from earlier work
[6] = system: KOR-DOR and KOR-MOR heterodimers; details: HEK293 cells; cited from earlier work

SMILES | EC50 (mouse MOR [1]) | Emax (mouse MOR [1]) | Ki (mouse KOR) | Ki (mouse DOR) | Ki (mouse MOR [2]) | MOR [35S]-GTPγS assay % Emax of DAMGO (mouse MOR [1]) | Antinociceptive effect (% MPE) (male Swiss Webster mice [3]) | AD50 (95% CL), opioid antagonist effect against morphine (male Swiss Webster mice [4]) | MOR [35S]-GTPγS assay EC50 (mouse MOR [1]; mMOR-CHO membranes) | Antinociceptive effect (% MPE) (male Swiss Webster mice [3]; listed as INTA) | Antinociception [5] | Aversive effects in the conditioned place preference assay [5] | Tolerance and dependence [5] | Activation of KOR-DOR and KOR-MOR heterodimers [6]
O=C(N[C@H]1CC[C@@]2(O)[C@H]3Cc4ccc(O)c5c4[C@@]2(CCN3CC2CC2)[C@H]1O5)c1cc2ccccc2[nH]1 [Compound 10, 17-Cyclopropylmethyl-3,14β-dihydroxy-4,5α-epoxy-6α-(indole-2-carboxamido)morphinan] | 6.75 ± 3.2 nM | 36.9 ± 2.4% | 0.93 ± 0.13 nM | 14.2 ± 2.78 nM | 0.36 ± 0.03 nM |  |  |  |  |  |  |  |  | 
O=C(N[C@H]1CC[C@@]2(O)[C@H]3Cc4ccc(O)c5c4[C@@]2(CCN3CC2CC2)[C@H]1O5)c1c[nH]c2ccccc12 [Compound 11, 17-Cyclopropylmethyl-3,14β-dihydroxy-4,5α-epoxy-6α-(indole-3-carboxamido)morphinan] | 1 ± 0.13 nM | 33.3 ± 3.51% | 0.98 ± 0.13 nM | 10.5 ± 2.89 nM | 0.29 ± 0.04 nM |  |  |  |  |  |  |  |  | 
O=C(N[C@H]1CC[C@@]2(O)[C@H]3Cc4ccc(O)c5c4[C@@]2(CCN3CC2CC2)[C@H]1O5)c1ccc2cc[nH]c2c1 [Compound 14, 17-Cyclopropylmethyl-3,14β-dihydroxy-4,5α-epoxy-6α-(indole-6-carboxamido)morphinan] | 6.06 ± 1.25 nM | 26.6 ± 0.66% | 1.63 ± 0.28 nM | 12.8 ± 3.36 nM | 0.43 ± 0.05 nM |  |  |  |  |  |  |  |  | 
O=C(CCc1c[nH]c2ccccc12)N[C@@H]1CC[C@@]2(O)[C@H]3Cc4ccc(O)c5c4[C@@]2(CCN3CC2CC2)[C@H]1O5 [Compound 8, 17-Cyclopropylmethyl-3,14β-dihydroxy-4,5α-epoxy-6β-[3-(indol-3-yl)propanamido)morphinan] | 1.73 ± 1.1 nM | 45.1 ± 5.18% | 0.39 ± 0.05 nM | 77.1 ± 28.3 nM | 0.17 ± 0.01 nM |  |  |  |  |  |  |  |  | 
O=C(N[C@H]1CC[C@@]2(O)[C@H]3Cc4ccc(O)c5c4[C@@]2(CCN3CC2CC2)[C@H]1O5)c1cccc2[nH]ccc12 [Compound 12, 17-Cyclopropylmethyl-3,14β-dihydroxy-4,5α-epoxy-6α-(indole-4-carboxamido)morphinan] | 4.99 ± 2.19 nM |  |  | 9.26 ± 2.83 nM | 0.26 ± 0.04 nM | 28.90 ±0.95% |  |  |  |  |  |  |  | 
O=C(CCCc1c[nH]c2ccccc12)N[C@@H]1CC[C@@]2(O)[C@H]3Cc4ccc(O)c5c4[C@@]2(CCN3CC2CC2)[C@H]1O5 [Compound 9, 17-Cyclopropylmethyl-3,14β-dihydroxy-4,5α-epoxy-6β-[4-(indol-3-yl)butanamido)morphinan] | 1.04 ± 0.17 nM |  |  | 25.3 ± 4.34 nM | 0.2 ± 0.03 nM | 36.29 ±4.11% |  |  |  |  |  |  |  | 
O=C(CCCc1c[nH]c2ccccc12)N[C@H]1CC[C@@]2(O)[C@H]3Cc4ccc(O)c5c4[C@@]2(CCN3CC2CC2)[C@H]1O5 [Compound 18, 17-Cyclopropylmethyl-3,14β-dihydroxy-4,5α-epoxy-6α-[4-(indol-3-yl)butanamido)morphinan] | 1.89 ± 1.04 nM | 54.9 ± 6.35% | 0.15 ± 0.03 nM | 6.73 ± 0.4 nM | 0.29 ± 0.04 nM |  |  |  |  |  |  |  |  | 
O=C(Cc1c[nH]c2ccccc12)N[C@@H]1CC[C@@]2(O)[C@H]3Cc4ccc(O)c5c4[C@@]2(CCN3CC2CC2)[C@H]1O5 [Compound 7, 17-Cyclopropylmethyl-3,14β-dihydroxy-4,5α-epoxy-6β-[2-(indol-3-yl)acetamido)morphinan] | 1.44 ± 0.75 nM | 48.3 ± 4.45% |  | 37 ± 1.21 nM | 0.24 ± 0.03 nM |  |  |  |  |  |  |  |  | 
O=C(Cc1c[nH]c2ccccc12)N[C@H]1CC[C@@]2(O)[C@H]3Cc4ccc(O)c5c4[C@@]2(CCN3CC2CC2)[C@H]1O5 [Compound 16, 17-Cyclopropylmethyl-3,14β-dihydroxy-4,5α-epoxy-6α-[2-(indol-3-yl)acetamido)morphinan] | 4.75 ± 0.31 nM | 34.1 ± 0.97% | 3.14 ± 0.45 nM | 9.17 ± 2.67 nM | 0.84 ± 0.12 nM |  |  |  |  |  |  |  |  | 
O=C(N[C@@H]1CC[C@@]2(O)[C@H]3Cc4ccc(O)c5c4[C@@]2(CCN3CC2CC2)[C@H]1O5)c1cccc2[nH]ccc12 [Compound 3, 17-Cyclopropylmethyl-3,14β-dihydroxy-4,5α-epoxy-6β-(indole-4-carboxamido)morphinan] | 8.16 ± 4.72 nM |  |  | 49.8 ± 12.7 nM | 0.24 ± 0.03 nM |  |  |  |  |  |  |  |  | 
O=C(CCc1c[nH]c2ccccc12)N[C@H]1CC[C@@]2(O)[C@H]3Cc4ccc(O)c5c4[C@@]2(CCN3CC2CC2)[C@H]1O5 [Compound 17, 17-Cyclopropylmethyl-3,14β-dihydroxy-4,5α-epoxy-6α-[3-(indol-3-yl)propanamido)morphinan] | 2.09 ± 0.19 nM | 41.5 ± 6.14% | 1.36 ± 0.18 nM | 25.1 ± 6.83 nM | 0.44 ± 0.04 nM |  |  |  |  |  |  |  |  | 
O=C(N[C@@H]1CC[C@@]2(O)[C@H]3Cc4ccc(O)c5c4[C@@]2(CCN3CC2CC2)[C@H]1O5)c1cccc2cc[nH]c12 [Compound 6, 17-Cyclopropylmethyl-3,14β-dihydroxy-4,5α-epoxy-6β-(indole-7-carboxamido)morphinan] |  |  | 0.52 ± 0.09 nM | 30.4 ± 9.49 nM |  | 37.94 ±5.85% |  |  |  |  |  |  |  | 
O=C(N[C@@H]1CC[C@@]2(O)[C@H]3Cc4ccc(O)c5c4[C@@]2(CCN3CC2CC2)[C@H]1O5)c1c[nH]c2ccccc12 [Compound 2, 17-Cyclopropylmethyl-3,14β-dihydroxy-4,5α-epoxy-6β-(indole-3-carboxamido)morphinan] | 0.22 ± 0.07 nM | 79.5 ± 7.41% |  | 7.17 ± 1.23 nM | 0.19 ± 0.02 nM | high MOR efficacies | low % MPE values |  |  |  |  |  |  | 
O=C(N[C@H]1CC[C@@]2(O)[C@H]3Cc4ccc(O)c5c4[C@@]2(CCN3CC2CC2)[C@H]1O5)c1ccc2[nH]ccc2c1 [Compound 13, 17-Cyclopropylmethyl-3,14β-dihydroxy-4,5α-epoxy-6α-(indole-5-carboxamido)morphinan] | 1.55 ± 0.08 nM | 32.2 ± 1.26% | 3.45 ± 0.99 nM | 26.7 ± 7.72 nM | 0.76 ± 0.11 nM |  |  |  |  |  |  |  |  | 
O=C(N[C@H]1CC[C@@]2(O)[C@H]3Cc4ccc(O)c5c4[C@@]2(CCN3CC2CC2)[C@H]1O5)c1cccc2cc[nH]c12 [Compound 15, 17-Cyclopropylmethyl-3,14β-dihydroxy-4,5α-epoxy-6α-(indole-7-carboxamido)morphinan] |  |  |  |  |  |  |  | 2.07 (0.40−10.74) mg/kg |  |  |  |  |  | 
O=C(N[C@@H]1CC[C@@]2(O)[C@H]3Cc4ccc(O)c5c4[C@@]2(CCN3CC2CC2)[C@H]1O5)c1cc2ccccc2[nH]1 [Compound 1, 17-Cyclopropylmethyl-3,14β-dihydroxy-4,5α-epoxy-6β-(indole-2-carboxamido)morphinan] | 0.21 ± 0.01 nM | 92.4 ± 2.81% | 0.18 nM | 1.54 ± 0.47 nM | 0.29 ± 0.04 nM | full agonist |  |  | subnanomolar potency | potent antinociception | potent antinociception | no aversive effects | devoid of tolerance and dependence | activated
O=C(N[C@@H]1CC[C@@]2(O)[C@H]3Cc4ccc(O)c5c4[C@@]2(CCN3CC2CC2)[C@H]1O5)c1ccc2[nH]ccc2c1 [Compound 4, 17-Cyclopropylmethyl-3,14β-dihydroxy-4,5α-epoxy-6β-(indole-5-carboxamido)morphinan] | 2.98 ± 1.25 nM | 22.3 ± 3.5% | 0.51 ± 0.04 nM | 17.7 ± 4.78 nM | 0.26 ± 0.04 nM |  |  |  |  |  |  |  |  | 
O=C(N[C@@H]1CC[C@@]2(O)[C@H]3Cc4ccc(O)c5c4[C@@]2(CCN3CC2CC2)[C@H]1O5)c1ccc2cc[nH]c2c1 [Compound 5, 17-Cyclopropylmethyl-3,14β-dihydroxy-4,5α-epoxy-6β-(indole-6-carboxamido)morphinan] | 0.19 ± 0.02 nM | 71.8 ± 4.37% | 0.17 ± 0.01 nM | 6.23 ± 0.83 nM | 0.25 ± 0.04 nM | high MOR efficacies | low % MPE values |  |  |  |  |  |  | 
